One series has as its system Coturnix japonica. The conditions noted are these: acute; oral; mortality.
The next series concerns Macromiidae. The conditions noted are these: acute; duration: 72 hours; biomass.
A further series concerns Apis mellifera. The note with it: acute; duration: 48 hours; oral; unspecified; mortality.
In a further series the test system is Daphnia magna. The conditions noted are these: chronic/long-term; duration: 21 days; reproduction.
A further series has as its system Canidae. The conditions noted are these: subchronic; duration: 90 days; oral; Dog Other; clinical signs.
The test system of a further series is Avena sativa. The conditions noted are these: acute; duration: 14 days; growth.
The test system of a further series is Mus musculus. The note with it: acute; oral; mortality.
Another series deals with Oryctolagus sp. The note with it: reproduction developmental; body weight.
The next series concerns Folsomia candida. The conditions noted are these: chronic/long-term; duration: 28 days; reproduction.
Another series has as its system Lepidium sativum. The note with it: acute; duration: 14 days; growth.
In a further series the test system is Poecilus cupreus. Nature of the series: LR50; higher = less toxic. The conditions noted are these: not reported; mortality.

SMILES strings stand for the structures. Converted amounts (≈) assume the structure as drawn. Where only a bound is given, the exact number is not on record here.

As usually defined, the NOAEL is the highest tested level that showed no adverse finding. `O=[N+]([O-])/N=C1\NCCN1Cc1ccc(Cl)nc1` [Imidacloprid]: the figures for the LD50 with Coturnix japonica, in the series with Apis mellifera and with Mus musculus were 31 mg/kg-day, 0.0037 µg/piece and 131 mg/kg-day, respectively. In addition, the NOEC with Macromiidae is 10 mg/L; in the series with Oncorhynchus mykiss (chronic/long-term, duration: 91 days, time to swim up) it was 9.02 mg/L; with Daphnia magna, 1.8 mg/L; with Avena sativa, not below 100 mg/kg; in the series with Tagia sp. (chronic/long-term, duration: 56 days, reproduction), more than 0.178 mg/kg; in the series with Folsomia candida, 1.25 mg/kg. In the series on Lepidium sativum, the NOEC turned out to be 10 mg/kg. For the same compound, the NOAEL with Colinus virginianus (reproduction developmental) turned out to be 9.3 mg/kg-day; in the series on Canidae, 7.8 mg/kg-day; with Rattus norvegicus (chronic), 17 mg/kg-day; in the series with Rattus norvegicus (chronic, duration: 2 years, histopathology: nonneoplastic), 5.7 mg/kg-day; with Rattus norvegicus (subchronic, duration: 90 days, oral, histopathology: nonneoplastic), 9.3 mg/kg-day; in the series with Oryctolagus sp., 8 mg/kg-day. The same compound returned an NOEL in the series on Colinus virginianus (short-term, oral, diet) of 29.4 mg/kg-day. Moreover, the LC50 in the series on Oncorhynchus mykiss (acute, duration: 96 hours, mortality) came out at 211 µg/mL (≈ 825 µM); in the series on Tagia sp. (acute, duration: 14 days, mortality), 10.7 mg/kg. The compound also gave an LR50 in the series with Poecilus cupreus of 0.136 mg/kg.

The values are drawn from EPA's ToxValDB 9.5 (doi:10.2903/j.efsa.2008.148r).
